Results: patent US20160318844A1, “PROSTACYCLIN COMPOUNDS, COMPOSITIONS AND METHODS OF USE THEREOF” (Insmed Incorporated, priority 2015, published 2016)
“Also recorded” adds a separate entry of the source. Where two headings read alike, the source gives them in different places.

What was measured:
[1] = test system: esterase; assay: Esterase mediated conversion of treprostinil compounds to treprostinil; assay type: in vitro ADME; details: esterase at 37° C., up to 1 hr
Description: A set of studies was conducted to determine the conversion kinetics to treprostinil of linear treprostinil compounds versus various branched treprostinil compounds. 0.4 mM of linear C8-TR or branched treprostinil compounds 2-dimethyl-1-propanyl-TR, 3,3-dimethyl-1-butanyl-TR, 2-ethyl-1-butanyl-TR, 5-nonanyl-TR, or 3-pentanyl-TR (see below for structures) were incubated with 0.2 U esterase at 37° C. for 1 hour, and the conversion (% of total) was calculated at 0.25, 0.5, 0.75, or 1 hour incubation time. • C8-TR (i.e., the compound of Formula (A) wherein R2=
The conversion is relative to the C8-TR compound and conversion was measured at 1 hr. post esterase incubation. • C8-TR (i.e., the compound of Formula (A) wherein R2=
Conversion was measured at 1 hr. post esterase incubation. • 4C7-TR (i.e., the compound of Formula (A) wherein R2=

[2] = biological target: T1, EP2 prostanoid receptor (Homo sapiens, UniProt P43116); assay: GloSensor cAMP assay in CHO-K1 cells co-transfected with the EP2 receptor; assay type: cell-based
T1 construct: host or cells: CHO-K1
T1 sequence (P43116 whole entry): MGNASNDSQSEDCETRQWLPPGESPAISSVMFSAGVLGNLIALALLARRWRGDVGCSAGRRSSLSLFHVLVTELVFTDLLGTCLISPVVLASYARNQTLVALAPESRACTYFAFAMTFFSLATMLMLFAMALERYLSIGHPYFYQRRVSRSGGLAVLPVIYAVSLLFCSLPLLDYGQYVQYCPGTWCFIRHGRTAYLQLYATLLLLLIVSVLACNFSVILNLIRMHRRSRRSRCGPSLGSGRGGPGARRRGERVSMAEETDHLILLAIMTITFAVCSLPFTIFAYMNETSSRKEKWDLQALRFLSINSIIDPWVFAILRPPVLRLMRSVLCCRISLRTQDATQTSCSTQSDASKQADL
Excerpt: cAMP is a second messenger involved in signal transduction of G-protein coupled receptors (GPCRs) acting through Gα-s and Gα-i proteins. Because the treprostinil receptor is a GPCR, the assay provides an indication of whether the respective prostacyclin compound (or metabolite thereof) binds its receptor and activates the GPCR cell signaling cascade. The GloSensorTM assay harnesses a genetically modified form of firefly luciferase into which a cAMP-binding protein moiety has been inserted. Upon binding of cAMP, a conformational change is induced leading to increased light output. The EP2 prostanoid receptor was cotransfected with the GioSensorm plasmid (Promega) into CHO-K cells as follows. CHO-K cells were harvested when the monoloayer was at 50-90% confluence. First, cells were washed with 5 mL PBS. […] The media was aspirated, and the cell pellet was resuspended in 10 mL of growth media. Cell number was determined using a hemacytometer. […] For small scale transfections of up to 20 wells, the pGLoSensor-22F cAMP plasmid (Promega, Cat #: E2301) (2 apg): […] Cat #: […] P2271) ratio was diluted to a final concentration of 12.6 ng/μL (total plasmid) in Opti-MEM I reduced-serum medium (Life Technologies, Cat #: 1985062). Next, 6 μL of FuGENE HD transfection reagent (Promega, Cat #: E2311) was added to 160 μL of diluted plasmid and mixed carefully by gentle pipetting. The complex was incubated at room temperature for 0 to 10 minutes, and then 8 μL of the complex was added per well of a 96 well white assay plate (Costar, Cat #: 3917) and gently mixed without disturbing the cell monolayer. […] Following incubation, cells were treated and analyzed. For larger scale transfections, the aforementioned steps were scaled up accordingly, and cells were frozen following the last incubation. In order to prepare frozen transfected CHO-K cells, the media was aspirated from culture flasks and cells were rinsed with 5 mL PBS. […] Cell number was determined using a hemacytometer. The media was aspirated, and the cell pellet was resuspended in freezing media (Millipore, cat #: S-002-SF) at 2.5×10^4 cells/vial. Transfected cells were incubated overnight at -80° C. before transfer to liquid nitrogen for long term storage. […] SH30071.03)). […] In preparation for cAMP measurement, the cells were equilibrated with the GloSensor cAMP reagent prior to treatment. For equilibration, the medium was carefully removed from the individual well. Next, 100 μL of equilibration medium ([…] of Glosensor Reagent stock solution (Promega, Cat #: E291), 10% FBS (Hydone, Cat #: SH30071.03) and 88% CO2 independent medium (Life Technologies, Cat #: 18045088)) was added per well of the 96-well plate, and added to the side of each well. The plate was then incubated for 2 hours at room temperature. A first pre-read measurement was taken using a microplate reader (MicroLumat Plus). Plates were incubated for an additional 10 minutes at room temperature, followed by a second pre-read measurement. […] Following treatment, each plate was read every 5 minutes for the duration of the assay using a microplate reader (MicroLumat Plus). In order to determine the fold change in cAMP relative to the control, the transfection efficiency was first determined by dividing the second pre-read measurement by the average of the corresponding pre-read measurements. Next, the normalized relative light units (RLUs) of the samples were determined by dividing the plate read measurement by the transfection efficiency. The fold change in cAMP relative to the control was then determined by dividing the normalized RLU of the samples by the normalized RLU of the control. The cAMP assay was validated using free treprostinil. […] Luminescence was then measured at room temperature. […] Nebulizer Aeroneb Pro (Aerogen) was used to nebulize treprostinil derivative compositions. Desired volume of the formulation (usually 3 mL) was loaded to the mesh head of the nebulizer. […]

[3] = physchem; details: organic solvent or mixture, thermodynamic from solid
Description: Selected treprostinil derivatives were evaluated for the use in a metered dose inhaler (MDI).
5 mg of each treprostinil compound was added in a glass bottle. Specific amount of ethanol was added by weight. An MDI valve was crimped to each bottle, and HFA propellant added through the valve to the total volume of 5 mL. Compounds were allowed to dissolve for 24 hours at room temperature. The formulations were assessed visually for solubility. The goal was to estimate the minimum ethanol concentration required to solubilize each compound in propellant.
Soluble samples presented as clear and colorless solutions. […] Non-soluble samples had white precipitate or crystals formed. Ethanol was added as a solubility aid.

[4] = test system: NR8383 cells; assay: NR8383 cell proliferation assay; assay type: cell-based, rat; details: Table 9, unformulated alkyl esters, (0.195 μM-25 μM), 72 hour incubation
Description: Rat alveolar NR8383 cells were harvested when the monolayer was 50-90% confluent (use passage 5-11). Because the NR8383 cells include both adherent and non-adherent cells, media was transferred to a 50 mL Falcon tube. To obtain the cells remaining in the flask, 2 mL of plain media was added, and the remaining cells were scraped out of the 75 cm^2 flask with a cell scraper and added to the 50 mL tube. […] SH30071.03)+1×Pen-Strep (Life Technologies, cat #: 15410-122)). Cell number was determined using a hemacytometer. […] Measurements and calculations were made as described above for the CHO-K1 cells. Rat alveolar NR8383 cells were challenged with the same treprostinil derivative compositions: […]

[5] = test system: CHO-K1 cells; assay: CHO-K1 cell proliferation assay (Presto Blue); details: Table 9, unformulated alkyl esters, (0.195 μM-25 μM), 48 hour incubation
Description: CHO-K1 cells were harvested when the cell monolayer was 50-90% confluent (use passage 4-11). Media was aspirated out of the flask, and cells were rinsed with 2 mL of F12 media. Next, 1 mL of pre-warmed (37° C.) 0.25% trypsin-EDTA (Life Technologies, Cat#: 25300054) was added, and cells were dislodged from the flask by tapping it on the side. Complete growth media (F12 (Life Technologies, Cat #: 31765092)+10% FBS (Hyclone, Cat #: SH30071.03)+1× Pen-Strep (Life Technologies, cat #15140-122) was then added at a volume of 10 mL. Cells were centrifuged at 250×g for 5 minutes at room temperature, and the media was aspirated. The cell pellet was resuspended in 10 mL complete growth media. Cell number was determined using a hemacytometer. Cells were then seeded at 2000 cells per well of a 96-well plate in 100 μL of complete growth media. The plate was incubated overnight at 37° C. and 5% CO2 in a water-jacketed incubator.
The next day, 80 μL of fresh complete media was added to each well, and CHO-K1 cells were challenged with treprostinil compound and composition treatments. The working solutions were prepared at 10× concentration, and following 2 fold serial dilutions, 20 μL aliquots were added per well to arrive at a final 1× concentration. Following a 48 hour incubation at 37° C. and 5% CO2 in a water-jacketed incubator, the inhibitory effect on cell proliferation was determined. Plates were analyzed using 20 μL of Presto Blue reagent (Life Technologies, cat #: A13262) per well. The reagent was mixed, and plates were incubated for 1 hour at 37° C. and 5% CO2 in a waterjacketed incubator. Plates were read using either a CytoFluor Series 4000 (PerSeptive BioSystems) or Synergy Neo microplate reader (BioTek) with emission λ: 590 nm and excitation λ: 560 nm. […]
CHO-K1 cells were challenged with treprostinil alkyl esters, i.e., TR compounds of Formula (A), having the following R2 groups: […]
C2, C3, C4, C5, C6, C8, C10 or C12 straight chain alkyl, at dosages ranging from 0.098 μM to 25 μM. Following a 48 hour incubation period, the inhibitory effect on cell proliferation was determined.
Following a 72 hour incubation period, the inhibitory effect on cell proliferation was determined. Following a 48 hour incubation period, the inhibitory effect on cell proliferation was determined. […]

CCCCCC[C@@H](C)OC(=O)COc1cccc2c1C[C@H]1C[C@@H](O)[C@H](CC[C@@H](O)CCCCC)[C@H]1C2 [(R)-2C8-TR]
conversion rate compared with other compound [1]: no significant difference

CCCCCC[C@H](C)OC(=O)COc1cccc2c1C[C@H]1C[C@@H](O)[C@H](CC[C@@H](O)CCCCC)[C@H]1C2 [(S)-2C8-TR]
conversion rate compared with other compound [1]: no significant difference

CCCCC[C@H](O)CC[C@@H]1[C@H]2Cc3cccc(OCC(=O)OC(CCC)CCC)c3C[C@H]2C[C@H]1O [Compound 4C7-TR]
conversion rate compared with other compound [1]: slower conversion rate than the linear compound C-TR

CCCCC[C@H](O)CC[C@@H]1[C@H]2Cc3cccc(OCC(=O)OC(CCC)CCCC)c3C[C@H]2C[C@H]1O (stereo partly shown) [Compound 4C8-TR]
conversion rate compared with other compound [1]: slower conversion rate than the linear compound C-TR; also recorded: slower conversion rate than the symmetrical compounds (4C7-TR and 5C9-TR)

CCCCC[C@H](O)CC[C@@H]1[C@H]2Cc3cccc(OCC(=O)OC(CCCC)CCCC)c3C[C@H]2C[C@H]1O [Compound 5C9-TR, 5-nonanyl-treprostinil]
change of potency with incubation time ([2]; cAMP dose response curves, 0.5 hr to 8 hr): increases with incubation time | ranking of activity ([2]; kinetic profile at 10 μM and 5 μM): C12-TR>C14-TR>5-nonanyl-TR>C16-TR | conversion rate compared with other compound [1]: slower conversion rate than the linear compound C-TR | conversion rate compared with other compound ([1]; listed as 5-nonanyl-TR): slower conversion rate than linear C8-TR | solubility at 24 h ([3]; Solubility in HFA-134a with added ethanol): < 1000 µg/mL | solubility at 24 h ([3]; Solubility in HFA-227 with added ethanol): > 1000 µg/mL

CCCCC[C@H](O)CC[C@@H]1[C@H]2Cc3cccc(OCC(=O)OCC)c3C[C@H]2C[C@H]1O [Compound C2-TR, treprostinil ethyl ester]
Effect on cell proliferation, NR8383 Cells: detectable cell inhibition [4]: No detectable cell inhibition | EC50 ([2]; 4.5 hr incubation time, read-out: EC50 (μM) 4.5 hr): 1.84 µM | EC50 ([2]; 6.0 hr incubation time, read-out: EC50 (μM) 6.0 hr): 1.68 µM | EC50 ([2]; 8.0 hr incubation time, read-out: EC50 (μM) 8.0 hr): 1.65 µM | EC50 ([2]; EC50 (μM) 0.5 hr, 0.5 hr incubation time): 2.43 µM | EC50 ([2]; EC50 (μM) 1.0 hr, 1.0 hr incubation time): 2.27 µM | EC50 ([2]; EC50 (μM) 2.0 hr, 2.0 hr incubation time): 1.75 µM | EC50 ([2]; EC50 (μM) 3.0 hr, 3.0 hr incubation time): 1.81 µM | EC50 ([2]; EC50 (μM) 4.0 hr, 4.0 hr incubation time): 1.88 µM | EC50 ([2]; EC50 (μM) 5.0 hr, 5.0 hr incubation time): 1.91 µM | EC50 ([2]; EC50 (μM) 7.0 hr, 7.0 hr incubation time): 1.71 µM | Effect on cell proliferation, CHO-K1 Cells: detectable cell inhibition [5]: No detectable cell inhibition

CCCCC[C@H](O)CC[C@@H]1[C@H]2Cc3cccc(OCC(=O)OCCC)c3C[C@H]2C[C@H]1O [Compound C3-TR]
Effect on cell proliferation, NR8383 Cells: detectable cell inhibition [4]: No detectable cell inhibition | Effect on cell proliferation, CHO-K1 Cells: detectable cell inhibition [5]: No detectable cell inhibition

CCCCC[C@H](O)CC[C@@H]1[C@H]2Cc3cccc(OCC(=O)OCCCC)c3C[C@H]2C[C@H]1O [Compound C4-TR]
Effect on cell proliferation, NR8383 Cells: detectable cell inhibition [4]: No detectable cell inhibition | Effect on cell proliferation, CHO-K1 Cells: detectable cell inhibition [5]: No detectable cell inhibition

CCCCCCOC(=O)COc1cccc2c1C[C@H]1C[C@@H](O)[C@H](CC[C@@H](O)CCCCC)[C@H]1C2 [Compound C6-TR]
Effect on cell proliferation, NR8383 Cells: detectable cell inhibition [4]: No detectable cell inhibition | Effect on cell proliferation, CHO-K1 Cells: detectable cell inhibition [5]: No detectable cell inhibition
